According to PMC6149668, “In Silico Identification and In Vitro Evaluation of Natural Inhibitors of Leishmania major Pteridine Reductase I” (Molecules : A Journal of Synthetic Chemistry and Natural …, 2017):
Where two headings read alike, the source gives them in different places.

How the values were obtained:
[1] = target: T1, recombinant LmPTR1 (Leishmania major pteridine reductase I) (Leishmania major, UniProt Q01782); experiment: biochemical; settings: for % Inhibition at c = 50 µM: inhibitor 50 µM
T1 construct: poly-His (N); made in house; host or cells: E. coli BL21 (DE3)
T1 sequence (Q01782 whole entry): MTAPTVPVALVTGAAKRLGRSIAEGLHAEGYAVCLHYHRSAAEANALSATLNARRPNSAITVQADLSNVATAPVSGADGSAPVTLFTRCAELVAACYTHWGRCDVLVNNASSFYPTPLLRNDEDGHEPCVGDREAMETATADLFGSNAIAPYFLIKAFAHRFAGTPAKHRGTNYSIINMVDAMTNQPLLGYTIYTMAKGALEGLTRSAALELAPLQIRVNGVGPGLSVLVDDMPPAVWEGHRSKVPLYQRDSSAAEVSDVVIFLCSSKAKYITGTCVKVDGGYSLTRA
Experimental: (§1) In order to assess the inhibitory activity of the compounds identified in silico, spectrophotometric inhibition assays were performed on recombinant LmPTR1, measuring the decreasing concentration of NADPH at 340 nm as a linear kinetic parameter for LmPTR1 activity at saturating concentrations of NADPH (co-substrate) and folic acid (substrate). First, each in silico hit was added to a concentration of 50 µM, and the resulting linear plots of absorbance vs. time were compared with those recorded in the absence of an inhibitor.
The determination of the inhibitory activity of the in silico hits was carried out by a UV-Vis spectrophotometric assay on recombinantly produced LmPTR1. In order to assess the catalytic activity of LmPTR1, the oxidation of NADPH to NADP^+ was followed with a Hitachi U-2900 UV-Vis spectrophotometer at 340 nm as a linear kinetic parameter. Reference measurements without the addition of inhibitors were used to determine the full catalytic activity (100% value), and subsequent measurements with inhibitory compounds were calculated accordingly. The total assay volume of 1 mL consisted of sodium phosphate buffer (50 mM NaH2PO4, 100 mM NaCl, pH 6), 250 µM NADPH, 35 µg LmPTR1, 22.5 µM folic acid, and varying inhibitor concentrations. The tested inhibitors were dissolved in DMSO (10 mM stock solutions), and appropriate volumes were added to the assays to obtain the desired assay concentrations in such a way that a DMSO concentration between 0.1–1% resulted. […] Initial tests were performed at an inhibitor concentration of 50 µM in triplicate.

[2] = Solubility under the LmPTR1 assay conditions; assay type: physicochemical; settings: sodium phosphate buffer pH 6, DMSO 0.1–1%
Experimental: as §1, with “inhibitor. […] For 2,3-dehydrosilybin A (1), complete inhibition could not be achieved. The maximum of inhibition achieved with this compound was 64% at a concentration of 50 µM. […] Plots of the inhibitory activity as a function of concentration for compounds 1 to 6 are shown in the Supplementary Materials Figures S10–S15, and the resulting IC50 and EC50 values are reported in Table 1.” for “inhibitor.”
The determination of the inhibitory activity of the in silico hits was carried out by a UV-Vis spectrophotometric assay on recombinantly produced LmPTR1. […] Reference measurements without the addition of inhibitors were used to determine the full catalytic activity (100% value), and subsequent measurements with inhibitory compounds were calculated accordingly. […] No inhibition of LmPTR1 could be detected by DMSO itself at the mentioned concentrations. […]

[3] = in brackets: 95% confidence interval, n = 4 to 7 concentrations, non-linear regression, read-out: IC50
[4] = pH 6, inhibitor 50 µM, 250 µM NADPH, 22.5 µM folic acid, pH 6, triplicate, n.i. = no inhibition at 50 µM, read-out: % Inhibition at c = 50 µM
[5] = 250 µM NADPH, 22.5 µM folic acid, pH 6, triplicate, n.i. = no inhibition at 50 µM

Compound: CC(C)=CCc1c(O)cc2oc3cc(O)c(O)c(CCC(C)(C)O)c3c(=O)c2c1O [garcinone C]
- IC50 [1, 3]: 26.3 µM

Compound: O=c1c(O)c(-c2cc(O)c(O)c(O)c2)oc2cc(O)cc(O)c12 [myricetin]
- IC50 [1, 3]: 21 µM
- inhibition at 50 µM ([1]; pH 6, read-out: % Inhibition at c = 50 µM, inhibitor 50 µM, 250 µM NADPH, 22.5 µM folic acid, pH 6, triplicate, n.i. = no inhibition at 50 µM): > 50%

Compound: O=c1cc(-c2ccc(O)cc2)oc2cc(OC3OC(CO)C(O)C(O)C3O)cc(O)c12 (stereo not shown) [apigenin-7-glucoside]
- IC50 [1]: 43.5 µM
- inhibition at 50 µM [1, 4]: > 50%

Compound: COc1cc([C@H]2Oc3cc([C@H]4Oc5cc(O)cc(O)c5C(=O)[C@@H]4O)ccc3O[C@@H]2CO)ccc1O [silybin A]
- inhibition at 50 µM [1, 4]: 14%

Compound: C=C(C)[C@H](CC=C(C)C)Cc1c(O)cc(O)c2c1O[C@H](c1ccc(O)cc1O)CC2=O [sophoraflavanone G]
- IC50 [1, 3]: 19.2 µM

Compound: icariside II
- % Inhibition at c = 50 µM [1, 5]: 35%

Compound: O=C(/C=C/c1ccc(O)c(O)c1)O[C@H](Cc1ccc(O)c(O)c1)C(=O)O [rosmarinic acid]
- inhibition at 50 µM [1, 4]: 20%

Compound: O=C(O[C@@H]1Cc2c(O)cc(O)cc2O[C@@H]1c1ccc(O)c(O)c1)c1cc(O)c(O)c(O)c1 [(−)-epicatechin-3-gallate]
- inhibition at 50 µM [1, 4]: 24%

Compound: phillyrin
- % Inhibition at c = 50 µM [1, 5]: n.i.

Compound: COc1cc([C@@H]2Oc3c(O)cc([C@H]4Oc5cc(O)cc(O)c5C(=O)[C@@H]4O)cc3[C@H]2CO)ccc1O [silychristin]
- inhibition at 50 µM [1, 4]: 24%

Compound: O=C(/C=C/c1ccc(O)c(O)c1/C=C/c1ccc(O)c(O)c1)O[C@H](Cc1ccc(O)c(O)c1)C(=O)O [salvianolic acid A]
- IC50 [1]: 42.2 µM
- inhibition at 50 µM [1, 4]: > 50%

Compound: COc1cc(O)c(CC=C(C)C)c2c1C(=O)CC(c1ccc(O)cc1)O2 (stereo not shown) [isoxanthohumol]
- inhibition at 50 µM [1, 4]: 22%

Compound: COc1cc([C@H]2Oc3cc(-c4oc5cc(O)cc(O)c5c(=O)c4O)ccc3O[C@@H]2CO)ccc1O [2,3-dehydrosilybin A]
- EC50 [1]: 7.3 µM
- inhibition at 50 µM ([1]; at a concentration of 50 µM, concentration-effect curve, read-out: maximum of inhibition achieved): 64%
- inhibition at 50 µM [1, 4]: > 50%
- solubility under the assay conditions [2]: limited solubility

Compound: COc1ccc([C@H]2OC[C@H]3[C@@H]2CO[C@@H]3c2cc(OC)c(OC)c(OC)c2)cc1OC [magnolin]
- % Inhibition at c = 50 µM [1, 5]: n.i.

Compound: COc1cc([C@@H]2Oc3ccc([C@H]4Oc5cc(O)cc(O)c5C(=O)[C@@H]4O)cc3O[C@H]2CO)ccc1O [isosilybin B]
- inhibition at 50 µM ([1]; pH 6, read-out: % Inhibition at c = 50 µM): 26%

Compound: COc1cc([C@@H]2Oc3cc([C@H]4Oc5cc(O)cc(O)c5C(=O)[C@@H]4O)ccc3O[C@H]2CO)ccc1O [silybin B]
- inhibition at 50 µM [1, 4]: 19%
